The source of these data is patent publication US20250367209A1 (SOUTHERN RESEARCH INSTITUTE, priority 2022, published 2025).

“Also recorded” adds a separate entry of the source.

One experiment concerns the target Tau-PxxP5/6 (Homo sapiens (Human), UniProt P10636). As to the kind of experiment: Isothermal titration calorimetry, Tau-PxxP5/6 peptide. It counts as binding. As to the method: ITC experiments were performed on an Auto-iTC200 system (Malvern Instruments, Westborough, MA). ITC sample cell contained ˜120 μM full-length Tau, FynSH3, or Tau-PxxP5/6 (titrand), and the syringe contained 1 mM compound no. 69 (titrant). Each titration experiment consisted of 16 injections of […] of titrant into titrand at 25° C. Background mixing heat was determined from injections of titrant into the same buffer without titrand. Data analysis was performed using the built-in analysis module in Origin 7 provided by the ITC manufacturer. The normalized titration heat was fitted to a “one set of sites” model to determine the best-fit binding parameters.
In general terms: In ITC the heat of successive injections is recorded.

For a further experiment, the system named is primary neurons. As to the kind of experiment: Multi-electrode array, Aβ-induced network hyperexcitability. It counts as cell-based, rat. Conditions: one hour preincubation, 500 nM Aβ oligomers, four hours. From the text: Primary neuron cultures: All animal procedures were approved by the Institutional Animal Care and Use Committee at the University of Alabama at Birmingham (UAB). As before (Rush, et al. (2020) Neurobiol Dis 134, 104668; Voskobiynyk, et al. (2020) eLife 9, e57354), primary rat neurons were isolated from timed-pregnant Sprague-Dawley rats. Briefly, dams were euthanized with isoflurane anesthesia asphyxiation, and hippocampal tissue was isolated from E19 embryos in Hibernate E, then digested in papain for 10 minutes at 37° C. Neurons were triturated into a single cell suspension in Neurobasal supplemented with B-27, L-Glutamine, and 10% FBS, then plated in 96-well plates coated with PDL and laminin at 30,000 neurons per well in 200 uL medium or in 24-well coated plates with or without coverslips at 50,000 per well. Cultures were maintained at 37° C. with 5% CO2. […]
Multi-electrode arrays: As in a prior study (Voskobiynyk, et al. (2020) eLife 9, e57354), 30,000 neurons were plated per well in a 48-well MEA plate. […] 69 for one hour, then 500 nM Aβ oligomers was applied and neurons were returned to the incubator for four hours before being recorded for 20 more minutes. […] Mean baseline frequency for each well was calculated from unit frequencies, then each unit in the post-treatment recording was normalized to the baseline average of its well. […]

Turning to `O=C(CN1CCOc2ccccc21)Nc1nnc(-c2ccccn2)[nH]1` [compound no. 69], the “interaction with Tau-PxxP5/6 peptide, ITC” value on Tau-PxxP5/6 is reported as “No interaction was observed”. The “Aβ-induced network hyperexcitability, multi-electrode array” value in the experiment on primary neurons is “prevented Aβ-induced network8hyperexcitability at both 3 and 15 μM; also recorded: ameliorates Aβ-induced network hyperexcitability”.
